Square brackets hold non-standard residues; d marks the D form. Peptide text beside a SMILES is read from it. pGlu = O=C1CC[C@@H](C(=O)O)N1
Assays:
[1] = system: human K-562 erythroleukaemical cell-line; test: Inhibition of the proliferation of tumor cells (K-562); type: cell-based; settings: 72nd hour after treatment, percentage of the control
Method: In the test human K-562 erythroleukaemical cell-line is used (Karolinska Institute, Stockholm). Incubation is carried out in a nutrient medium designated RPMI-1640 (manufactured by Flow, Great Britain) comprising 10% of foetal calf serum, at a temperature of 37° C., in a humidified incubator containing 3% of carbon dioxide, in plastic dishes. Every point of measurement corresponds to the average of the data measured in three dishes, each. At the beginning of the test the dilution amounts to 0.5×10^5 cells/ml. Treatment is carried out 24 hours after dilution in a manner that the medium is not changed after the treatment. The cells are counted for 96 hours after dilution every 24th hour wit the aid of a Buerker chamber.
Under the effect of the peptide in the 24th hour after treatment the cell number stagnates and later it increases to a very small extent. […] The tumor-cell division inhibiting effect of the new peptides is summarized in Table 1 (72 hours after treatment). The rate of inhibition is expressed in the percentage of the control. It clearly appears from the data of the Table that the tested peptides inhibit the proliferation of human K-562 erythroleukaemic cells.

[2] = system: antibody production inhibited by cyclophosphamide; test: Effect on antibody production in mice treated with cyclophosphamide; type: in vivo, CELP mice; settings: cyclophosphamide 100 mg/kg i.p., titer on 6th day
Method: The effect on in vivo antibody production is tested on CELP mice treated with a 100 mg/kg body weight dose of cyclophosphamide {2-[bis-(2-chloroethyl)-amino]-tetrahydro-2H-1,3,2-oxaza -phosphorine-2-oxide; method: Z. Naturforsch. 35B, 1476 (1980)}. The mice are intraperitoneally immunized with a 1% sheep erythrocyte suspension previously washed three times with a 0.9% sodium chloride solution after 10 minutes of centrifuging at 2,500 r.p.m. Simultaneously with immunization carried out on the 0. day, the activity of the immune system is suppressed by means of treatment with a 100 mg/kg i.p. does of cyclophosphamide. On the 3rd day of the test the peptides are administered to the animals intraperitoneally in a dose of 5, 50 and occasionally 100 mg/kg respectively. On the 6th day of the test blood is taken retroorbitally from the mice and the anti-sheep erythrocyte titer of the serum is determined. […] The effect of the peptides is expressed as percentage of the relief of inhibition (G %).

[3] = system: lymphocytes inhibited by Azathioprine; test: E-rosetta test inhibited by Azathioprine; type: cell-based
Method: Inhibition of the proliferation of T-lymphocytes is tested in the E-rosetta test inhibited by Azathioprine [6-(1-methyl-4-nitroimidazole-5-yl-thio)-purine; Thymus 1, 195 (1980)].
To 200 μl of a healthy lymphocyte cell-suspension 500 μl/ml of Azathioprine and 200 μl of a separate dilution of the test compound in HBBS buffer (manufacturer: Flow, Great Britain) are added (concentration range: 10^-3 to […]). The mixture is incubated at a temperature of 37° C. in air containing 5% of carbon dioxide for 60 minutes, whereupon 200 μl of a 1% sheep erythrocyte suspension are added. The mixture thus-obtained is centrifuged at 1,000 r.p.m. for 5 minutes, the supernatant is removed by decanting and in the suspension the lymphocytes forming E-rosetta are counted under a microscope from at least 400 cells.
Under the effect of the peptides the E-rosetta forming activity of the lymphocytes inhibited by Azathioprine increases to different extent. […] It appears from the data of Table 2 that the tested peptides increase the E-rosetta forming capacity of inhibited lymphocytes, i.e. the peptides of the present invention show immunostimulant effect.

[4] = system: inflammation induced by oxozolone; test: Dermatitis test induced with oxazolone; type: in vivo, CFLP mice; settings: 24th hour after treatment, ear weight increase
Method: In this test a modified pharmacological model of D. P. Evans et al. [Br. J. Pharmac. 43, 403-488 (1971)] is used.
The abdominal skin of male CFLP mice weighing 20-22 g is painted after the removal of the hair with 0.1 ml of a 2% solution of oxazolon (4-ethoxymethyl-2-phenyl-oxazoline, manufacturer Sigma) in sunflower oil. On the right ear of the test animals 7 days after sensitization (painting) inflammatory reaction is induced with the aid of 10 μl of a 2% acetonous oxazolone solution and simultaneously the animals are treated with a 1 or 2 mg/kg, respectively, i.p. does of the test compound. The test compound is dissolved in a physiological sodium chloride solution in such a concentration that the active ingredient content corresponding to the dose should be dissolved in a volume of 0.5 ml/10 g animal body weight.
The antiinflammatory effect is determined as follows: the animals are sacrificed in the 24th hour after treatment, whereupon the right and left ears are cut off. The percentual weight increase of the right ear related to the left ear is characteristic of the rate of inflammation induced during the test, while the percentual reduction of weight increase of the treated animals related to the untreated control is proportional to the antiinflammatory effect. In Table 4 the reduction of weight increase (antiinflammatory effect) achieved by the test compounds is disclosed, as the percentage of the untreated control.

[5] = peptide 5 mg/kg i.p. on 3rd day
[6] = peptide 50 mg/kg i.p. on 3rd day

| SMILES | Inhibition of the proliferation of K-562 cells, inhibition (c %) ([1]; peptide 1/ug/ml) [%] | Inhibition of the proliferation of K-562 cells, inhibition (c %) ([1]; peptide 10/ug/ml) [%] | Restoration of primary immune answer, G % [2, 5] [%] | Restoration of primary immune answer, G % [2, 6] [%] | Relief of inhibition (R %) of E-rosetta forming activity ([3]; peptide 10^-3 mole/l) [%] | Relief of inhibition (R %) of E-rosetta forming activity ([3]; peptide 10^-5 mole/l) [%] | Relief of inhibition (R %) of E-rosetta forming activity ([3]; peptide 10^-7 mole/l) [%] | Relief of inhibition (R %) of E-rosetta forming activity ([3]; peptide 10^-9 mole/l) [%] | Relief of inhibition (R %) of E-rosetta forming activity ([3]; peptide 10^-11 mole/l) [%] | Restoration of primary immune answer, G % ([2]; peptide 100 mg/kg i.p. on 3rd day) [%] | Inhibition of inflammation induced by oxozolone, inhibition as % of control ([4]; 1 mg/kg i.p.) [%] | Inhibition of inflammation induced by oxozolone, inhibition as % of control ([4]; 2 mg/kg i.p.) [%] |
| --- | --- | --- | --- | --- | --- | --- | --- | --- | --- | --- | --- | --- |
| CC(C)C[C@H](N)C(=O)N[C@H](C(=O)N[C@@H](C)C(=O)O)C(C)C [Peptide 7, Leu-VaI-AIa-OH] (H-Leu-Val-Ala-OH) | 38 | 52 | 73.3 | 100.0 |  |  |  |  |  |  |  |  |
| N=C(N)NCCC[C@H](N)C(=O)N[C@@H](CCCCN)C(=O)N[C@@H](CCC(=O)O)C(N)=O [Peptide 3, Arg-Lys-Glu-NH2] (H-Arg-Lys-Glu-NH2) | 40 | 52 | 78.1 | 47.6 | 24.3 | 22.6 | 15.6 | 24.8 | 17.0 |  |  |  |
| N=C(N)NCCC[C@H](N)C(=O)N[C@@H](CCCCN)C(=O)N[C@@H](CC(=O)O)C(N)=O [Peptide 4, Arg-Lys-Asp-NH2] (H-Arg-Lys-Asp-NH2) | 25 | 50 |  |  | 29.7 | 30.0 | 18.7 | 23.9 | 18.5 | 28.5 | 27 |  |
| NCCCC[C@H](NC(=O)[C@H](CCCCN)NC(=O)[C@H](CCC(=O)O)NC(=O)[C@@H](N)CCCCN)C(=O)O [Peptide 10, Lys-GIu-Lys-Lys-OH] (H-KEKK-OH) | 28 | 40 | 15.5 | 37.7 | 22.9 | 16.3 | 25.2 | 21.1 | 26.6 |  | 22 | 79 |
| CC(C)[C@H](NC(=O)[C@H](CC(=O)O)NC(=O)[C@H](CCCCN)NC(=O)[C@@H](N)CCCNC(=N)N)C(=O)O [B, Arg--Lys--Asp--Val, reference compound] (H-RKDV-OH) |  | 4 |  |  | 35.4 | 35.4 | 46.4 | 32.5 | 34.0 |  |  |  |
| N=C(N)NCCC[C@H](N)C(=O)N[C@@H](CCCCN)C(=O)N[C@@H](CCC(=O)O)C(=O)O [Peptide 5, Arg-Lys-GIu-OH] (H-Arg-Lys-Glu-OH) | 40 | 48 | 61.5 | 76.9 | 24.5 | 24.6 | 24.7 | 24.0 | 27.5 |  |  |  |
| NCCCC[C@H](NC(=O)[C@H](CCC(=O)O)NC(=O)[C@@H]1CCC(=O)N1)C(N)=O [Peptide 2, Glp-Glu-Lys-NH2] ([pGlu]-Glu-Lys-NH2) | 40 | 55 | 23.0 | 3.0 | 25.4 | 20.2 | 31.7 | 24.3 | 37.1 |  |  |  |
| CC(C)C[C@H](NC(=O)[C@@H](N)CCC(=O)O)C(=O)N[C@H](C(=O)N[C@@H](C)C(=O)O)C(C)C [Peptide 13, GIu-Leu-VaI-AIa-OH] (H-ELVA-OH) | 55 | 65 | 20.9 | 32.8 |  |  |  |  |  |  | 40 |  |
| CC(C)[C@H](NC(=O)[C@H](CC(=O)O)NC(=O)[C@H](CCCCN)NC(=O)[C@@H](N)CCCN=C(N)N)C(=O)N[C@@H](Cc1ccc(O)cc1)C(=O)O [A, Arg--Lys--Asp--Val--Tyr, reference compound] (H-RKDVY-OH) |  | 32 |  |  | 31.7 | 29.3 | 38.7 | 30.0 | 19.4 |  |  |  |
| CC(C)C[C@H](N)C(=O)N1CCC[C@H]1C(=O)N[C@@H](C)C(=O)NCC(=O)O [Peptide 14, Leu-Pro AIa-Gly-OH] (H-LPAG-OH) | 45 | 70 | 34.0 | 56.8 |  |  |  |  |  |  | 55 |  |
